Data taken from patent US6855512B2, “Methods for identifying inhibitors of cytochrome P450RAI” (Allergan, Inc., priority 2000, dated 2005).

Key:
[1] = molecular target: T1, RARβ (Homo sapiens, UniProt P10826); assay: ligand binding assay, RARβ; conditions: Kd line of EC50/(EFFICACY)/Kd, K = thousand, read-out: RAR β Kd
T1 sequence (P10826 1-455): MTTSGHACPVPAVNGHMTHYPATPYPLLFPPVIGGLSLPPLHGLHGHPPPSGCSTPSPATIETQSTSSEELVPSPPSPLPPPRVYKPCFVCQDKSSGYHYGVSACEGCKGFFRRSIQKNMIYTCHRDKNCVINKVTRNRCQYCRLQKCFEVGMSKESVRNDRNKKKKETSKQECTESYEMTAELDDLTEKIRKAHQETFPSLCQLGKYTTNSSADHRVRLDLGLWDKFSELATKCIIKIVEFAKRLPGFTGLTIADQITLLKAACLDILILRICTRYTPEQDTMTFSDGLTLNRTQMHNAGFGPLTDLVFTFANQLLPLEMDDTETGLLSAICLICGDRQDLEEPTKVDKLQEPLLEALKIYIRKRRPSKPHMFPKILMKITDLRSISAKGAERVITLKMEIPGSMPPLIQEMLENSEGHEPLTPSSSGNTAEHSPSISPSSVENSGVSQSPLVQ
Excerpt: (§1) Assays described below measure the ability of a compound to bind to, and/or activate various retinoid receptor subtypes. When in these assays a compound binds to a given receptor subtype and activates the transcription of a reporter gene through that subtype, then the compound is considered an agonist of that receptor subtype. […] In the below described assays the ability of the compounds to bind to RARα, RARβ, RARγ, RXRα, RXRβ and RXRγ receptors, and the ability or inability of the compounds to activate transcription of a reporter gene through these receptor subtypes can be tested.
(§2) The results obtained in this assay are expressed in EC50 numbers, as they are also in the chimeric receptor transactivation assay. The results of ligand binding assay are expressed in Kd numbers.

[2] = molecular target: T2, RARα (Homo sapiens, UniProt P10276); assay: chimeric receptor transactivation assay, RARα; type: cell-based; conditions: EC50 line of EC50/(EFFICACY)/Kd, read-out: RAR α EC50
T2 sequence (P10276 183-417 limits assumed): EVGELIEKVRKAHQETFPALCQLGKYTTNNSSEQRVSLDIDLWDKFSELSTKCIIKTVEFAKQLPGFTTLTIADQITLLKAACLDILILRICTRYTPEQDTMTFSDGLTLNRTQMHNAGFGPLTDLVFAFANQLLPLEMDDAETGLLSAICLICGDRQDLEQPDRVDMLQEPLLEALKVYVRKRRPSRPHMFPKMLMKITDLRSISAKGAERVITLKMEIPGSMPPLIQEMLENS
Excerpt: as §1, §2

[3] = molecular target: T3, RARα (Homo sapiens, UniProt P10276); assay: ligand binding assay, RARα; conditions: Kd line of EC50/(EFFICACY)/Kd, K = thousand, read-out: RAR α Kd
T3 sequence (P10276 1-462): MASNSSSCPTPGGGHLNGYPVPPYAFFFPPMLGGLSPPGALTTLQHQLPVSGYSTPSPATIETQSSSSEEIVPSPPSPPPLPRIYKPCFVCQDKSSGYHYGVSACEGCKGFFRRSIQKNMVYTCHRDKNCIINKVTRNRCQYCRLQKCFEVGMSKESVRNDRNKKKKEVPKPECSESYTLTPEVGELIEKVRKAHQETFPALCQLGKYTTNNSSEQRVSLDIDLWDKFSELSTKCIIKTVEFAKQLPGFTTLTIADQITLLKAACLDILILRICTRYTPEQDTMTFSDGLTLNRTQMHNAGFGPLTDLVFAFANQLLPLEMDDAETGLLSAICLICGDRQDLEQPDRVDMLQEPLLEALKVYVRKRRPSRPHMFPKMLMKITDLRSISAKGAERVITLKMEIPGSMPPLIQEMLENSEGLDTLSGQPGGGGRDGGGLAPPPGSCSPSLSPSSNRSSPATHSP
Excerpt: as §1, §2

[4] = molecular target: T4, RARγ (Homo sapiens, UniProt P13631); assay: ligand binding assay, RARγ; conditions: Kd line of EC50/(EFFICACY)/Kd, K = thousand, read-out: RAR γ Kd
T4 sequence (P13631 1-454): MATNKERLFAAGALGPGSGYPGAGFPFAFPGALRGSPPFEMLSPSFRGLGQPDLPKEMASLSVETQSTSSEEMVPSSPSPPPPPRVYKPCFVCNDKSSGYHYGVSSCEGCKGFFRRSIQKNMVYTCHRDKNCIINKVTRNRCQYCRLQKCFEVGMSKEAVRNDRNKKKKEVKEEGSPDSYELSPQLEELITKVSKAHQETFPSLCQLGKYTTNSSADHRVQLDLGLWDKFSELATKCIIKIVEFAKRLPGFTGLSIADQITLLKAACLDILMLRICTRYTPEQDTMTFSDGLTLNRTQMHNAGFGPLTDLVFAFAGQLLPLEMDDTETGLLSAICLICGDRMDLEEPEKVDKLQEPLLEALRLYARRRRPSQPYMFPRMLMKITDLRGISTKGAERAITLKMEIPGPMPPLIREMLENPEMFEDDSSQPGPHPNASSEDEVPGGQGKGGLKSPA
Excerpt: as §1, §2

[5] = molecular target: T5, RARβ (Homo sapiens, UniProt P10826); assay: chimeric receptor transactivation assay, RARβ; type: cell-based; conditions: EC50 line of EC50/(EFFICACY)/Kd, read-out: RAR β EC50
T5 sequence (P10826 183-417 limits assumed): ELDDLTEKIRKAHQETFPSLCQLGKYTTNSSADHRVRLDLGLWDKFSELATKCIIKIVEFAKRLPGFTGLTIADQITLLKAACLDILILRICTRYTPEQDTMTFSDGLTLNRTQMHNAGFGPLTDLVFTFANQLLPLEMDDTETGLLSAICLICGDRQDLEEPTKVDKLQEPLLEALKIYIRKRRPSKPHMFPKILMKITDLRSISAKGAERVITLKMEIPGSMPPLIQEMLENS
Excerpt: as §1, §2

[6] = molecular target: T6, RARγ (Homo sapiens, UniProt P13631); assay: chimeric receptor transactivation assay, RARγ; type: cell-based; conditions: EC50 line of EC50/(EFFICACY)/Kd, read-out: RAR γ EC50
T6 sequence (P13631 185-454 limits assumed): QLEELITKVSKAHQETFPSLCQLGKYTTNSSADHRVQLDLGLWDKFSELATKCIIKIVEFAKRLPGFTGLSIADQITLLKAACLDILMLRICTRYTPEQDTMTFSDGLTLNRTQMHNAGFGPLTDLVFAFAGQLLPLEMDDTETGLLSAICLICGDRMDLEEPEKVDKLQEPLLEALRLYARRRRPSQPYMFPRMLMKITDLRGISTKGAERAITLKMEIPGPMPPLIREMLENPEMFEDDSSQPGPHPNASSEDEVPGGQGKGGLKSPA
Excerpt: as §1, §2

Kd [1]: 2.89 µM
EC50 [2]: 0.089 µM
Kd [3]: 10 µM
Kd [4]: 10 µM
EC50 [5]: 0.018 µM
EC50 [6]: 0.015 µM
Compound: CC1(C)CCSc2ccc(C#Cc3ccc(CCC(=O)O)cc3)cc21 [Compound 210]
